This is an account of results in patent US11759462B2, “Spirocyclic compounds as tryptophan hydroxylase inhibitors” (priority 2013, dated 2023).

SMILES strings stand for the structures. Where two headings read alike, the source gives them in different places. Some results are limits rather than exact numbers.

The experiment concerns the target T1, Recombinant human TPH1 (MBP tagged) (Homo sapiens, UniProt P17752).
T1 construct: cloning full length human TPH1 cDNA in to a bacterial pMAL-c5E expression vector; made in house; host or cells: E. coli BL21 (DE3)
T1 sequence (P17752 1-444): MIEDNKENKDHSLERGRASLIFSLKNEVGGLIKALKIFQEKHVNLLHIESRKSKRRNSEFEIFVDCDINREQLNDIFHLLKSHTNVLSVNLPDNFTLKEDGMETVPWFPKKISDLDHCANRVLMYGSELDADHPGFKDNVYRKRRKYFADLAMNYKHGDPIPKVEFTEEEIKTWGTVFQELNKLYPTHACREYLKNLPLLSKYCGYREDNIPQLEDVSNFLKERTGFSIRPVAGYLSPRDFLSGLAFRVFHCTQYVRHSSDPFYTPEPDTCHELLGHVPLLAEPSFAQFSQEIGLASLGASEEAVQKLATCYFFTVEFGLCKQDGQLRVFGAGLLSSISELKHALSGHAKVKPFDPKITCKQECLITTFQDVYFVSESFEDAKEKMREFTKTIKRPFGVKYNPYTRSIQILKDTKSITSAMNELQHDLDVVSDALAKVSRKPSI
Put plainly: TPH1 in vitro inhibition assay (kinetic fluorescence). It counts as biochemical. Summed up: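 Final mix: 15 nM MBP-TPH1, 30 μM Trp, 36 μM 6-methyltetrahydropterin, 25 μM ferrous ammonium sulfate, 50 mM MES pH 7.1, 1% DMSO, room temperature.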

The mark [1] stands for this setting: read-out: TPH1 Range (TPH1 inhibition IC50).
The mark [2] stands for this setting: TPH1 Range (TPH1 inhibition IC50).

`Nc1nc(O[C@H](c2cc(Br)ccc2Br)C(F)(F)F)cc(N2CCC3(CC2)CN[C@H](C(=O)O)C3)n1` [Example 48, (S)-8-(2-Amino-6-((R)-1-(2,5-dibromophenyl)-2,2,2-trifluoroethoxy)pyrimidin-4-yl)-2,8-diazaspiro[4.5]decane-3-carboxylic acid]: the IC50 (usually the concentration that gives 50% inhibition) under setting [1] is 300 to 3000 nM.

As for `CCCc1ccc(-c2cccc(S(C)(=O)=O)c2)c([C@@H](Oc2cc(N3CCC4(CC3)CN[C@H](C(=O)O)C4)nc(N)n2)C(F)(F)F)c1` [Example 49, (S)-8-(2-Amino-6-((R)-2,2,2-trifluoro-1-(3′-(methylsulfonyl)-4-propyl-[1,1′-biphenyl]-2-yl)ethoxy)pyrimidin-4-yl)-2,8-diazaspiro[4.5]decane-3-carboxylic acid], under setting [1], the IC50 was under 50 nM.

For the compound `C/C=C/c1ccc(-c2cccc(S(C)(=O)=O)c2)c([C@@H](Oc2cc(N3CCC4(CC3)CN[C@H](C(=O)O)C4)nc(N)n2)C(F)(F)F)c1` [Example 50, (S)-8-(2-Amino-6-((R)-2,2,2-trifluoro-1-(3′-(methylsulfonyl)-4-((E)-prop-1-en-1-yl)-[1,1′-biphenyl]-2-yl)ethoxy)pyrimidin-4-yl)-2,8-diazaspiro[4.5]decane-3-carboxylic acid], the IC50 under setting [1] lay in the range of 50 to 300 nM.

With `Cc1ccc(-c2ccc([C@@H](Oc3cc(N4CCC5(CC4)CN[C@H](C(=O)O)C5)nc(N)n3)C(F)(F)F)c(-c3cccc(S(C)(=O)=O)c3)c2)cc1C` [Example 52a, (S)-8-(2-Amino-6-((R)-1-(3,4-dimethyl-3″-(methylsulfonyl)-[1,1′:3′,1″-terphenyl]-4′-yl)-2,2,2-trifluoroethoxy)pyrimidin-4-yl)-2,8-diazaspiro[4.5]decane-3-carboxylic acid], the IC50 under setting [1] is under 50 nM.

Regarding `CS(=O)(=O)c1cccc(-c2cc(-c3ccc4ncccc4c3)ccc2[C@@H](Oc2cc(N3CCC4(CC3)CN[C@H](C(=O)O)C4)nc(N)n2)C(F)(F)F)c1` [Example 52b, (S)-8-(2-amino-6-((R)-2,2,2-trifluoro-1-(3′-(methylsulfonyl)-5-(quinolin-6-yl)-[1,1′-biphenyl]-2-yl)ethoxy)pyrimidin-4-yl)-2,8-diazaspiro[4.5]decane-3-carboxylic acid], the IC50 under setting [1] is under 50 nM.

With `C/C=C/c1ccc([C@@H](Oc2cc(N3CCC4(CC3)CN[C@H](C(=O)O)C4)nc(N)n2)C(F)(F)F)c(-c2cccc(S(C)(=O)=O)c2)c1` [Example 53, (S)-8-(2-Amino-6-((R)-2,2,2-trifluoro-1-(3′-(methylsulfonyl)-5-((E)-prop-1-en-1-yl)-[1,1′-biphenyl]-2-yl)ethoxy)pyrimidin-4-yl)-2,8-diazaspiro[4.5]decane-3-carboxylic acid], the IC50 under setting [1] is under 50 nM.

Turning to `CCCc1ccc([C@@H](Oc2cc(N3CCC4(CC3)CN[C@H](C(=O)O)C4)nc(N)n2)C(F)(F)F)c(-c2cccc(S(C)(=O)=O)c2)c1` [Example 54a, (S)-8-(2-Amino-6-((R)-2,2,2-trifluoro-1-(3′-(methylsulfonyl)-5-propyl-[1,1′-biphenyl]-2-yl)ethoxy)pyrimidin-4-yl)-2,8-diazaspiro[4.5]decane-3-carboxylic acid], under setting [1], the IC50 was under 50 nM.

With `CC(C)Oc1ccc(-c2ccc([C@@H](Oc3cc(N4CCC5(CC4)CN[C@H](C(=O)O)C5)nc(N)n3)C(F)(F)F)c(-c3ccccc3)c2)cc1` [Example 54b, (S)-8-(2-amino-6-((R)-2,2,2-trifluoro-1-(4-isopropoxy-[1,1′:3′,1″-terphenyl]-4′-yl)ethoxy)pyrimidin-4-yl)-2,8-diazaspiro[4.5]decane-3-carboxylic acid], the IC50 under setting [1] lay within 50 to 300 nM.

Turning to `CCCOc1ccc(-c2ccc([C@@H](Oc3cc(N4CCC5(CC4)CN[C@H](C(=O)O)C5)nc(N)n3)C(F)(F)F)c(-c3ccccc3)c2)cc1` [Example 54c, (S)-8-(2-amino-6-((R)-2,2,2-trifluoro-1-(4-propoxy-[1,1′:3′,1″-terphenyl]-4′-yl)ethoxy)pyrimidin-4-yl)-2,8-diazaspiro[4.5]decane-3-carboxylic acid], under setting [1], the IC50 was under 50 nM.

As for `CS(=O)(=O)c1ccc([C@@H](Oc2cc(N3CCC4(CC3)CN[C@H](C(=O)O)C4)nc(N)n2)C(F)(F)F)c(-c2ccccc2)c1` [Example 54d, (S)-8-(2-amino-6-((R)-2,2,2-trifluoro-1-(5-(methylsulfonyl)-[1,1′-biphenyl]-2-yl)ethoxy)pyrimidin-4-yl)-2,8-diazaspiro[4.5]decane-3-carboxylic acid], the IC50 under setting [1] lay in the range of 50 to 300 nM.

For the compound `CCCOc1ccc(-c2ccc([C@@H](Oc3cc(N4CCC5(CC4)CN[C@H](C(=O)O)C5)nc(N)n3)C(F)(F)F)c(-c3ccccc3)c2)cc1F` [Example 54e, (S)-8-(2-amino-6-((R)-2,2,2-trifluoro-1-(3-fluoro-4-propoxy-[1,1′:3′,1″-terphenyl]-4′-yl)ethoxy)pyrimidin-4-yl)-2,8-diazaspiro[4.5]decane-3-carboxylic acid], the IC50 under setting [1] lay within 50 to 300 nM.

With `Cc1ccc(-c2ccc([C@@H](Oc3cc(N4CCC5(CC4)CN[C@H](C(=O)O)C5)nc(N)n3)C(F)(F)F)c(-c3ccccc3)c2)cc1C` [Example 54f, (S)-8-(2-amino-6-((R)-1-(3,4-dimethyl-[1,1′:3′,1″-terphenyl]-4′-yl)-2,2,2-trifluoroethoxy)pyrimidin-4-yl)-2,8-diazaspiro[4.5]decane-3-carboxylic acid], under setting [1], the IC50 was under 50 nM.

For the compound `Nc1nc(O[C@H](c2ccc(-c3ccccc3)cc2-c2ccccc2)C(F)(F)F)cc(N2CCC3(CC2)CN[C@H](C(=O)O)C3)n1` [Example 54g, (S)-8-(6-((R)-1-([1,1′:3′,1″-terphenyl]-4′-yl)-2,2,2-trifluoroethoxy)-2-aminopyrimidin-4-yl)-2,8-diazaspiro[4.5]decane-3-carboxylic acid], the IC50 under setting [1] fell in the range of 50 to 300 nM.

Turning to `Nc1nc(O[C@H](c2ccc(Cl)cc2-c2ccccc2)C(F)(F)F)cc(N2CCC3(CC2)CN[C@@H](C(=O)O)C3)n1` [Example 54h, (R)-8-(2-amino-6-((R)-1-(5-chloro-[1,1′-biphenyl]-2-yl)-2,2,2-trifluoroethoxy)pyrimidin-4-yl)-2,8-diazaspiro[4.5]decane-3-carboxylic acid], the IC50 under setting [2] lay within 3000 to 10000 nM.

For `Nc1nc(O[C@@H](c2ccc(Cl)cc2-c2ccccc2)C(F)(F)F)cc(N2CCC3(CC2)CN[C@@H](C(=O)O)C3)n1` [Example 54i, (R)-8-(2-amino-6-((S)-1-(5-chloro-[1,1′-biphenyl]-2-yl)-2,2,2-trifluoroethoxy)pyrimidin-4-yl)-2,8-diazaspiro[4.5]decane-3-carboxylic acid], the IC50 under setting [2] lay within 3000 to 10000 nM.

With `Nc1nc(O[C@@H](c2ccc(Cl)cc2-c2ccccc2)C(F)(F)F)cc(N2CCC3(CC2)CN[C@H](C(=O)O)C3)n1` [Example 54j, (S)-8-(2-amino-6-((S)-1-(5-chloro-[1,1′-biphenyl]-2-yl)-2,2,2-trifluoroethoxy)pyrimidin-4-yl)-2,8-diazaspiro[4.5]decane-3-carboxylic acid], under setting [2], the IC50 is 50 to 300 nM.

Turning to `Cc1ccn(-c2cc(-c3ccc(C)c(C)c3)ccc2[C@H](Oc2cc(N3CCC4(CC3)CN[C@H](C(=O)O)C4)nc(N)n2)C(F)(F)F)n1` [Example 54k, (S)-8-(2-amino-6-((S)-1-(3′,4′-dimethyl-3-(3-methyl-1H-pyrazol-1-yl)-[1,1′-biphenyl]-4-yl)-2,2,2-trifluoroethoxy)pyrimidin-4-yl)-2,8-diazaspiro[4.5]decane-3-carboxylic acid], the IC50 under setting [2] lay within 50 to 300 nM.
